# Laboratory results as given in PMC3914206.
# Key:
# Format in all cases: binding
# Settings in all cases: Compound Concentration 10 µM
# panel of 442 kinases [1] = target: T1, panel of 442 kinases (Homo sapiens, UniProt P15056, V600E)
# T1 construct: purchased KINOMEscan
# Description: (§1) We assessed the selectivity of members of this scaffold using the KINOMEscan methodology across a near comprehensive panel of 442 kinases [[18,27]].
# panel of 442 kinases [2] = target: T2, panel of 442 kinases (Homo sapiens, UniProt Q13627)
# T2 construct: purchased KINOMEscan
# Description: as §1
# panel of 442 kinases [3] = target: T3, panel of 442 kinases (Homo sapiens, UniProt P53778)
# T3 construct: purchased KINOMEscan
# T3 sequence (P53778 1-367): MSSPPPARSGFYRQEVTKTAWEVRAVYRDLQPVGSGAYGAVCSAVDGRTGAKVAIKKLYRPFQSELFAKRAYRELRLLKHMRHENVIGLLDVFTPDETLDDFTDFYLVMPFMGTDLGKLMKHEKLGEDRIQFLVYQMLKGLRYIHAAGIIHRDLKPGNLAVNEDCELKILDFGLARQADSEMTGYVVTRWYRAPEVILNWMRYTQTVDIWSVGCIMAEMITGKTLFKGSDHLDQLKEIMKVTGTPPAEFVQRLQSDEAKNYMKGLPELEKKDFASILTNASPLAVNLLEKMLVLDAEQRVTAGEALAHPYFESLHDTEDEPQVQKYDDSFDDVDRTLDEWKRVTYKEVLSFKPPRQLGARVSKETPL
# Description: as §1
# T1 sequence (P15056 whole entry V600E): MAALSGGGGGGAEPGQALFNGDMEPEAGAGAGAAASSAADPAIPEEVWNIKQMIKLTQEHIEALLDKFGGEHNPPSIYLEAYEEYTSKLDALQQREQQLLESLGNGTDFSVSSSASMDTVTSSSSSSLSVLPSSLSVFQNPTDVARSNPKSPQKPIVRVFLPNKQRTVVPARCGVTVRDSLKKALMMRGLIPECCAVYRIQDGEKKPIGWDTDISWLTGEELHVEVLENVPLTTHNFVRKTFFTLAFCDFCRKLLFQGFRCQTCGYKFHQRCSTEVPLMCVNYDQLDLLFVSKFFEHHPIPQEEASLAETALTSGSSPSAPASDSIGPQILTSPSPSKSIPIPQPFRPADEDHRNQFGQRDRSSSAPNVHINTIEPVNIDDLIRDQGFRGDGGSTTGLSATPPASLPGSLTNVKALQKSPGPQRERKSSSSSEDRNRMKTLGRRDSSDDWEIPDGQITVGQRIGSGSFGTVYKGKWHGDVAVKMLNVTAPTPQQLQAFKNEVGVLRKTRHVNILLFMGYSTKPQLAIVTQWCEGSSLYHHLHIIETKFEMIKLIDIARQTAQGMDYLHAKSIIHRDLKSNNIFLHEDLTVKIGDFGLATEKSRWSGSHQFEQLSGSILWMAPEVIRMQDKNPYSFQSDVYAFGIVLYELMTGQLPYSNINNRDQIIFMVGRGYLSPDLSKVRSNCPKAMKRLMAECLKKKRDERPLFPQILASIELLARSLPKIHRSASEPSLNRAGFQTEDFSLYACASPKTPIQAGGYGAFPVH
SMILES,KINOMEscan: BRAF(V600E) (panel of 442 kinases [1]),KINOMEscan: DYRK1A (panel of 442 kinases [2]),KINOMEscan: p38-gamma (panel of 442 kinases [3])
COc1cc(C(=O)N2CCC(N3CCN(C)CC3)CC2)ccc1Nc1ncc2c(n1)N(C)c1ccccc1C(=O)N2C [15 (LRRK2-IN-1)],100,99,76
COc1cc(C(=O)N2CCC(N3CCN(C)CC3)CC2)ccc1Nc1ncc2c(n1)N1CCc3cccc(c31)C(=O)N2C [Compound 24],,67,
"COc1cc(C(=O)N2CCC(N3CCN(C)CC3)CC2)ccc1Nc1ncc2c(n1)N(C1CCCC1)c1ccccc1C(=O)N2C [Compound 25, 11-cyclopentyl-2-((2-methoxy-4-(4-(4-methylpiperazin-1-yl)piperidine-1-carbonyl)phenyl)amino)-5-methyl-5H-benzo[e]pyrimido[5,4-b][1,4]diazepin-6(11H)-one]",100,100,88
CCOc1cc(C(=O)N2CCC(N3CCN(C)CC3)CC2)ccc1Nc1ncc2c(n1)N(C1CCCC1)c1ccccc1C(=O)N2C [Compound 26],100,88,32
